Data as given in patent publication US20170209544A1, “A PEPTIDE THERAPY TO COUNTERACT INSULIN RESISTANCE AND TYPE 2 DIABETES” (The Regents of the University of California, priority 2014, published 2017).
Where no end group is shown, it is not given here.

Assays:
Heart function = conditions: in vivo
peritoneal macrophages = assay: qPCR of inflammatory genes in cultured peritoneal macrophages; type: cell-based, mice; conditions: LPS 100 ng/ml, 4 hr; both WT and Chga-KO macrophages
Experimental: Peritoneal macrophages were isolated after thioglycollate (3% solution in water) stimulation as described. Isolated macrophages were cultured in DMEM with 10% FBS for 48 hours with daily medium changes. Cells were then serum-starved overnight in DMEM with low FBS (0.5%) and then exposed to saline, PST (100 nM), or LPS (100 ng/ml) for 4 hours. At the end of incubation, the cultures were subjected to RNA extraction.
RNA from tissues was extracted using a kit (RNeasy Plus, Qiagen, Valencia, Calif.). After DNase digestion, 200 ng of RNA was transcribed into cDNA in a 20-μl reaction using a High Capacity cDNA Archive kit and this cDNA was amplified. PCR (25-μl reactions) contained 5 μl of cDNA, 2×SYBR Green PCR Master Mix, and 400 nM of each primer. Differences in the threshold cycle number (ΔCt) between the target gene, the housekeeping gene Gapdh and the ribosomal protein gene 36B4 were used to calculate differences in expression. Primer sequences are provided below.
As shown in FIGS. 18A-18H, PST promotes macrophage inflammation and chemotaxis. Peritoneal macrophages were isolated from WT-NCD and KO-NCD after thioglycollate injection. After 4-hr exposure to saline, LPS (100 ng/ml) or PST (100 nM), RNAs were extracted and cDNAs were prepared for qPCR analyses of Chga (FIG. 18A, n=8), iNos (FIG. 18B, n=8), Tnfα (FIG. 18C, n=8), Mcp-1 (FIG. 18D, n=8), IL-6 (FIG. 18E, n=8), IL-12p40 (FIG. 18F, n=8) and iNos genes (FIG. 18G, n=8). (FIG. 18H) Effects of PST on chemotaxis of activated macrophages from NCD-fed C57BL/6J mice (n=5). “*” Denotes comparison between the indicated groups. “*”: P<0.05, “**”: p<0.01, “***”: p<0.001.

Substance	effects on heart function (Heart function)	expression of iNos (peritoneal macrophages)
KGEQEHSQQKEEEEEMAVVPQGLFRG-NH2 [PSTv1]	no adverse effects on heart function	
lipopolysaccharide [LPS]		~100 fold
